This is an account of results in patent US12433903B2 (priority 2021, dated 2025).

Data set [1] concerns all the UGTs combined. The data set is described as follows: UGT reaction phenotyping, all the UGTs combined. Format: in vitro ADME, Human. The source says:
Experimental Summary: UGT Reaction Phenotyping (7 Isoforms).

The test system of data set [2] is cryopreserved hepatocytes. Kind of data set: Hepatocyte stability and metabolite profiling, dog. Format: in vitro ADME. To be noted: dog hepatocyte samples, 10 and 20 minute. The procedure: The objective of this study was to investigate the stability of the test compound, CBG, in human, rat, dog, mouse, monkey and minipig cryopreserved hepatocytes. Follow-on metabolite profiling was performed.
CBG was incubated up to 2 hr with cryopreserved hepatocytes. Cryopreserved hepatocytes in suspension were added to test compound in supplemented media following pre-incubation to initiate the reaction and the reactions were stopped by organic solvent at the appropriate time points. The termination plates were centrifuged and sample supernatants were analysed using Cyprotex generic LC MS/MS conditions to generate intrinsic clearance values for CBG. Two control compounds for each species were included in the assay and if the values for these compounds were not within the specified limits the results were rejected and the experiment repeated.
Following the hepatocyte stability assay the samples were 59 tilized for metabolite profiling using suitable high-resolution LC-MS/MS conditions. The 40 and 60 minute human samples, 20 and 120 minute rat samples, 10 and 20 minute dog and monkey samples, 20 and 60 minute mouse samples, and 40 and 120 minute minipig samples were compared against the 0 minute control sample to establish which and how many metabolites were formed. […]
The areas and percentages reported for the parent and metabolites were calculated using the XIC data. […]

The nature of data set [3]: PK study after oral (PO) or intraperitoneal (IP) administration. Format: in vivo, male Sprague Dawley rats. The following applies: CBG 30 mg/kg PO or IP; Compound 1 31.5 mg/kg PO; Compound 2 32.7 mg/kg PO. The procedure:
This study evaluated the pharmacokinetics of (E)-2-(3,7-dimethylocta-2,6-dien-1-yl)-3-methoxy-5-pentylphenol (1) and (E)-2-(3,7-dimethylocta-2,6-dien-1-yl)-1,3-dimethoxy-5-pentylbenzene (2) following oral (PO) or intraperitoneal (IP) administration to male Sprague Dawley rats.
For the oral formulation the test article was added to the appropriate amount of Maisine and stirred until uniform. Next Labrasol was added to the formulation and allowed to stir until uniform. Finally, water will be slowly added to the stirring formulation to achieve the final volume.
For the IP formulation the test article was added to the appropriate amount of ethanol and stirred until uniform. Next, the appropriate amount of tween-20 was added to the stirred formulation. Finally, the appropriate amount of saline was slowly added to the stirred formulation to achieve the final volume.
Animals were fasted the evening prior to dosing with food returned at 4 h postdose, and the animals weighed on the morning of dose administration.
IP doses were administered via injection to the intraperitoneal region. PO doses were delivered into the stomach via syringe and gavage tube.
Blood was collected from via direct jugular stick or from the tail vein. Blood samples were kept on ice until being centrifuged at 3200 RPM for 10 minutes at ˜5° C. within 1 h of collection. Plasma was split into 2 cryovials in approximately equal volumes (0.05 mLs) and stored at −20° C.±5° C. until shipment.

On to `CCCCCc1cc(O)c(C/C=C(\C)CCC=C(C)C)c(O)c1` [CBG, cannabigerol], for which, in data set [1], the “activity of UGT2B7 relative to UGT1A9” value is “approximately 1/10” and the “share of the activity for all the UGTs combined represented by UGT1A9” value is reported as about 80%. Besides, the “metabolites observed (number)” value in data set [2] was “three”. Also, the “glucuronidation / glucuronide formation in plasma (in words)” value in data set [3] is “converted by glucuronidation to CBG-glucoronide”.

Regarding `CCCCCc1cc(O)c(C/C=C(\C)CCC=C(C)C)c(OC)c1` [Compound 1, (E)-2-(3,7-dimethylocta-2,6-dien-1-yl)-3-methoxy-5-pentylphenol], the “glucuronidation / glucuronide formation in plasma (in words)” value in data set [3] was “significantly reduced levels of glucuronidation compared to CBG”.
